In series [1] the test system is PC-3 tumors. Nature of the series: In vivo efficacy in athymic nude mice bearing human xenograft prostate cancer tumor. The conditions noted are these: single i.v. injection, 60 days. In general terms: Xenograft models place foreign cells or tissue in a host animal.
Method: For in vivo efficacy study, athymic nude mice bearing human prostate tumor (−150 mm^3) were divided into five groups of four mice, minimizing, weight and tumor size differences. […] Human xenograft prostate cancer tumors were induced in 6-week old athymic nude mice (NCI Frederick, Md., USA). Mice were injected subcutaneously in the right flank with 2.5×10^6 PC-3 cells suspended in a 1:1 mixture of serum-free media and matrigel (BD Biosciences, Franklin Lakes, N.J., USA). Prior to use in tumor induction, PC-3 cells were cultured in RPMI-1640 medium supplemented with 10% fetal bovine serum, 100 units/ml penicillin G, and 100 mg/ml streptomycin. Tumor targeting studies were carried out after the mice developed ˜150 mm^3 tumors. […] After dosing, the mice were monitored for weight and implanted tumor size daily for sixty days. The length and width of the tumors were measured by digital calipers and tumor volume was calculated by the following formula: (width^2×length)/2 [17]. […]
To evaluate the in vivo efficacy of Ptx-GGbPEG-Apt copolymeric nanoparticles, PC-3 cells were injected subcutaneously in the flanks of athymic nude mice as described above. […] The tumor size and body weight were then monitored for 60 days.
The conditions of series [2]: i.v.; cited from earlier work.
Series [3] concerns PC-3 tumors. Nature of the series: Histological analysis of excised tumor (H & E). It is filed as in vivo, mice. The conditions noted are these: day 60 post treatment. As for the experimental part:
Selected tumors from each group were harvested and fixed in 10% neutral buffered formalin. Tumors were paraffin embedded, sectioned, placed on polylysine slides, and stained with Hematoxylin & Eosin (H & E) to visualize morphological changes in the tumors in both the treated and control groups. Images were recorded using a light microscope equipped with camera.

The test system of series [4] is PC-3 cells. Nature of the series: MTT cytotoxicity assay, PC-3. The conditions noted are these: PC-3, 10, 30, 120 minutes treatment, then 72 h. It is filed as cell-based, human. On the procedure: To investigate the cytotoxicity of Ptx-GGbPEG-Apt nanoparticles on human prostate cancer cells, mitochondrial dehydrogenase assay (MTT) was employed. PC-3 or DU-145 cells (5×10^3) were seeded in 96-well plates containing 100 μl of RPMI medium 1640 (American Type Culture Collection), supplemented with 100 units/ml aqueous penicillin G, 100 μg/ml streptomycin, and 10% FBS. Cells were then allowed to adhere overnight prior to treatment. On the day of experiment, cells were washed twice with PBS and then exposed to similar concentrations (25 μg/ml) of Ptx in either the encapsulated or free formulations. The control cells received 1% (v/v) DMSO or drug free GGbPEG nanoparticles (1.0 μg/ml). Cells were incubated with drug formulations for different time points (10, 30, 120 mins) followed by washing with PBS and replacing treatment medium with fresh medium in the plates. Cells were further incubated for 72 h. […] The optical densities (OD) of the resulting solutions were determined at 490 nm using a microplate reader (Packard Instruments, Meriden, Conn.) and cell viability (%) was calculated by comparing the OD of the treatment group relative to that of the untreated control group (100%).
(Tetrazolium dyes change colour on reduction, which living cells bring about.)

Series [5] concerns DU-145 cells. The series can be described thus: MTT cytotoxicity assay, DU-145. As to conditions: then 72 h; for viability at 25 µg/mL: Homo sapiens, DU-145, DU-145, 25 μg/ml Ptx, read-out: cell viability. It is filed as cell-based, human. On the procedure:
To investigate the cytotoxicity of Ptx-GGbPEG-Apt nanoparticles on human prostate cancer cells, mitochondrial dehydrogenase assay (MTT) was employed. PC-3 or DU-145 cells (5×10^3) were seeded in 96-well plates containing 100 μl of RPMI medium 1640 (American Type Culture Collection), supplemented with 100 units/ml aqueous penicillin G, 100 μg/ml streptomycin, and 10% FBS. Cells were then allowed to adhere overnight prior to treatment. On the day of experiment, cells were washed twice with PBS and then exposed to similar concentrations (25 μg/ml) of Ptx in either the encapsulated or free formulations. The control cells received 1% (v/v) DMSO or drug free GGbPEG nanoparticles (1.0 μg/ml). Cells were incubated with drug formulations for different time points (10, 30, 120 mins) followed by washing with PBS and replacing treatment medium with fresh medium in the plates. Cells were further incubated for 72 h. At the end of treatment period, medium was removed and replaced with 100 μl of complete culture medium and 10 μl of MTT (5 mg/ml) in each well and the plates were incubated at 37° C. in a humidified, 5% CO2 atmosphere for 3 h. The resulting formazan crystals were solubilized with 100 μl of the stop solution (0.1N HCl in isopropanol). The optical densities (OD) of the resulting solutions were determined at 490 nm using a microplate reader (Packard Instruments, Meriden, Conn.) and cell viability (%) was calculated by comparing the OD of the treatment group relative to that of the untreated control group (100%).

Like-named read-outs stand apart in the source and are kept apart here.

`CC(=O)O[C@H]1C(=O)[C@@]2(C)[C@H]([C@H](OC(=O)c3ccccc3)[C@]3(O)C[C@H](OC(=O)[C@H](O)[C@@H](NC(=O)c4ccccc4)c4ccccc4)C(C)=C1C3(C)C)[C@]1(OC(C)=O)CO[C@@H]1C[C@@H]2O` [Ptx, Paclitaxel]: the “efficacy in tumor reduction (comparison of groups)” value in series [1] is given as “does not show any significant long-term efficacy”. The “maximal tolerated dose (MTD)” value in series [2] was 40 mg/kg. The “histological examination of tumors by H & E staining” value in series [3] is on record as “extensively necrotic”. Moreover, the cytotoxic effect result in series [4] is given as “time-dependent cytotoxicity”; in series [5] (DU-145, 10, 30, 120 minutes treatment), “time-dependent cytotoxicity”. For the same compound, the viability (usually a read-out of living cells in per cent, often relative to untreated cells) at 25 µg/mL in series [5] (treated 30 minutes) is 50%; in series [5] (treated 120 min) it was 35%.

Values taken from US8389012B2, “Gellan-gum nanoparticles and methods of making and using the same” (The Corporation of Mercer University, priority 2008, dated 2013).
